Tested on: HCT-116 colorectal cancer cells
Experiment: Cell viability (alamarBlue) assay in HCT-116 cells
Type: cell-based, Human
Settings: 72 hr exposure, four parameter logistic fit
Description: Human HCT-116 colorectal cancer cells (CRC) and MDA-MB-231 breast cancer cells were purchased from the American Type Culture Collection (Manassas, Va.) and grown following ATCC recommendations, in the presence of fetal bovine serum (10%), 2 mM L-glutamine and antibiotics (100 IU/ml penicillin and 100 μg/ml streptomycin, Sigma). Cells were maintained at 37° C., 5% CO2 atmosphere.
Cell viability was measured using the alamarBlue assay (Invitrogen). In brief, cells were plated in 96-well plates in triplicate at 5K cells per well and incubated at 37° C., 5% CO2 atmosphere for 24 hr prior to the addition of drug or vehicle (0.3% DMSO) to the culture medium. After 72 hr, 10 μl/well alamarBlue was added to the wells and incubated for an additional 3 hr at 37° C., 5% CO2 atmosphere. Fluorescence ([…]/590EM nM) was measured with a SpectraMax microplate reader (Molecular Devices) and the resulting data were used to calculate cell viability, normalized to vehicle control. […]
Combinations between ganetespib and cisplatin were then performed in HCT-116 cells concurrently based on the IC50 for each agent in matrix format with 54 combination pairs for each drug. The combined drugs, as well as each drug alone, were incubated with the cells for 3 days and the surviving fraction of cells relative to control was determined using the alamarBlue assay.

With `N.N.[Cl][Pt][Cl]` [cisplatin] the IC50 was ~5700 nM.

Compound `CC(C)c1cc(-c2nnc(O)n2-c2ccc3c(ccn3C)c2)c(O)cc1O` [ganetespib, 3-(2,4-DIHYDROXY-5- ISOPROPYL-PHENYL)-4-(1- METHYL-INDOL-5-YL)-5- HYDROXY-[1,2,4] TRIAZOLE] has an IC50 (Homo sapiens) of ~32 nM.
